Data reported in patent EP3685668B1, “COMPOSITION COMPRISING ACIBENZOLAR-S-METHYL AS EFFECTIVE INGREDIENT FOR CONTROLLING BURSAPHELENCHUS XYLOPHILUS DISEASE AND METHOD FOR CONTROLLING BURSAPHELENCHUS XYLOPHILUS USING SAME” (Industry Foundation of Chonnam National University, priority 2017, dated 2019).

Experiments:
[1] = test system: Xyloglucan; assay: qRT-PCR expression of induced resistance gene in pine tree callus; type: cell-based; details: 200 µg/mℓ, 24 hours
Protocol: (§1) For in vitro analysis of induced resistance, the expression of PR genes and other plant defense-related genes was determined, which are evolved in various defense mechanisms including induced resistance. The primers of sixteen induced resistance-related genes of pine tree used in this invention were listed in the below and elongation factor_1 alpha were used as a reference gene. [Table 4] The primer list of defense resistance-related genes
(§2) After the treatment with 200 µg / mℓ of candidates of the selected induced resistance material, expression of the induced resistance-related gene in pine callus was determined by qRT-PCR using the primer pairs of defense resistance-related genes in Table 4. As a candidate group of an induced resistance material in pine tree, acibenzolar-S-methyl (ASM), TDL (Tiadinil), ITL (Isotianil), PBZ (Probenzole), AZO (Azoxystrobin), VMA (Validamycin A), MeJA (Methyl jasmonate), BABA (DL-3-aminobutyric acid), 2,3-BDO (2,3-Butanediol), GABA (r-Aminobutyric acid), glucan (Glucan), ER (Ergosterol), and AZA (Azelaic acid) were used. For the in vitro analysis of the expression of induced resistance gene in pine callus, the selected induced resistance materials were applied with 500 µℓ of LM liquid medium on a surface of pine tree callus (100 mg) in 12-well microplate to give final concentration of 200 µg/mℓ. Then, the callus surface was sufficiently reacted for 24 hours with the candidate of pine tree induced resistance material by shaking at 50 rpm in a 25 °C shaking incubator under dark condition. RNAs were extracted from the callus after completion of the reaction with an induced resistance material, followed by synthesis of cDNAs. Then, by carrying out qRT-PCR, the expression of induced resistance genes was determined. [Table 5] Expression of induced resistance gene in pine tree callus by TDL, PBZ, ASM, ITL, AZO, VMA, glucan, and AZA
(§3) Based on the results of assay using young plants and gene expression by selected induce resistance materials, it seemed that acibenzolar-S-methyl had the most excellent effect. Thus, the following tests were carried out using acibenzolar-S-methyl only. Expression of the induced resistance genes at different culture time after the chemical treatment was examined. For the in vitro assay, LM medium containing pine tree callus was treated with acibenzolar-S-methyl at concentration of 200 µg / mℓ, followed by reaction for 1 day, 7 days, or 14 days in a 25°C shaking incubator under dark condition. RNAs were extracted from the callus after the reaction followed by synthesis of cDNAs. Then, by carrying out qRT-PCR, the expression of the induced resistance genes was determined. Depending on reaction time after the treatment, i.e., after 1 day, 7 days, or 14 days, the expression of the obtained induced resistance genes was examined. As a result of the in vitro callus assay depending on reaction time after the treatment with acibenzolar-S-methyl, the expression of the induced resistance-related genes is the highest at 1 day after the treatment with acibenzolar-S-methyl and gradually diminished over time, as it is shown in Table 7. In this regard, it is contemplated that the expression of genes acquired by acibenzolar-S-methyl is not maintained in highly expressed state until the pathogen invasion and just memorized with at minimum level so that the energy consumption by plant can be efficiently managed. [Table 7] Expression of induced resistance gene in pine tree callus by acibenzolar-S-methyl depending on reaction time
(§4) To have an in vitro assay according to different methods of treatment with acibenzolar-S-methyl, two separate treatment methods, i.e., surface treatment (spraying treatment) of pine tree callus and direct application of the induced resistance material to an LM medium containing pine tree callus, were performed. […]

[2] = test system: PR_5 family; assay: as above; type: cell-based; details: 200 µg/mℓ, 24 hours
Protocol: as §1, §2, §3, §4

[3] = test system: Antipeptide; assay: as above; type: cell-based; details: 200 µg/mℓ, 24 hours
Protocol: as §1, §2, §3, §4

[4] = test system: PR_9 family; assay: as above; type: cell-based; details: 200 µg/mℓ, 24 hours
Protocol: as §1, §2, §3, §4

[5] = test system: Heat shock 70; assay: as above; type: cell-based; details: 200 µg/mℓ, 24 hours
Protocol: as §1, §2, §3, §4

[6] = test system: Hydroxyproline; assay: as above; type: cell-based; details: 200 µg/mℓ, 24 hours
Protocol: as §1, §2, §3, §4

[7] = test system: PR_2 family; assay: as above; type: cell-based; details: 200 µg/mℓ, 24 hours
Protocol: as §1, §2, §3, §4

[8] = test system: Metallothionein; assay: as above; type: cell-based; details: 200 µg/mℓ, 24 hours
Protocol: as §1, §2, §3, §4

[9] = test system: PR_1b family; assay: as above; type: cell-based; details: 200 µg/mℓ, 24 hours
Protocol: as §1, §2, §3, §4

[10] = test system: PR_4 family; assay: as above; type: cell-based; details: 200 µg/mℓ, 24 hours
Protocol: as §1, §2, §3, §4

[11] = test system: Extensin; assay: as above; type: cell-based; details: 200 µg/mℓ, 24 hours
Protocol: as §1, §2, §3, §4

[12] = test system: Bursaphelenchus xylophilus; assay: Occurrence of pine wilt disease after trunk injection of induced resistance candidate materials, in vivo test in young red pine trees; details: red pine tree (Pinus densiflora), 30 days after inoculation; for Occurrence rate of pine wilt disease: Number of pine trees showing wilt symptoms / Number of pine trees used for the test: trunk injection 100 µℓ per tree; for Number of pine trees showing wilt symptoms only at growing points of a stem: trunk injection
Protocol: By using the 15 types of an induced resistance elicitors which have been known to induce the plant resistance against various diseases as candidates, their controlling effect against pine wilt disease was examined. The control efficacy of candidates against pine wilt disease was analyzed according to an in vivo test using red pine tree (Pinus densiflora) which was 2-year old young pine trees (diameter of 5.5 mm or so, and height of about 35 mm).
As a candidate group of an induced resistance material, two kinds of acibenzolar-S-methyl (ASM), TDL (Tiadinil), ITL (Isotianil), PBZ (Probenzole), AZO (Azoxystrobin), VMA (Validamycin A), MeJA (Methyl jasmonate), BABA (DL-3-aminobutyric acid), 2,3-BDO (2,3-Butanediol), SA (salicyclic acid), GABA (r-Aminobutyric acid), glucan (Glucan), ER (Ergosterol), and AZA (Azelaic acid) were used. Only the use of acibenzolar-S-methyl is according to the invention. Injection of the chemicals was carried out by trunk injection method, i.e., at an angle of 45°, a borehole was created by using an electric drill with thickness of 1.5 mm on a pine stem part that is 5 to 10 cm above the soil surface, a tip (200 µℓ) was inserted to the hole, and, after dissolving the candidate material at concentration level of 200, 20, or 2 µg/mℓ in each solvent, the solution was injected in an amount of 100 µℓ per pine tree. After the injection of the chemical agent, the end part of the tip was sealed with parafilm.
The pine tree wilt nematodes (Bursaphelenchus xylophilus, National Institute of Forest Science (NIFoS), South Korea) was incubated at 25°C by feeding them with Botrytis cinerea, which have been cultured on a potato dextrose agar (PDA) medium, and after one week incubation, they were collected by Baermann funnel method and were adjusted to the level of 20,000 worms/mℓ by examining the number of the worms under an optical microscope. One week after the chemical treatment, the inoculation of the pine tree wilt nematodes was carried out by tree barking inoculation of 100 µℓ, i.e., 2,000 worms, per tree, and the result was determined 30 days after the inoculation. […] [Table 1] Occurrence rate of pine wilt disease in candidate group of induced resistance materials

Which “Expression of induced resistance gene, Xyloglucan” value [1] does the source give for `CC/C=C\CC1C(=O)CCC1CC(=O)OC` (centres unmarked) [MeJA, Methyl jasmonate] here?
The value was 0.44.

What about the “Expression of induced resistance gene, PR_5 family” value [2] of the same compound?
The value was 0.95.

What about the “Expression of induced resistance gene, Antipeptide” value [3] of the same compound?
The value was 0.43.

And the “Expression of induced resistance gene, PR_9 family” value [4]?
The value was 0.47.

What about the “Expression of induced resistance gene, Heat shock 70” value [5] of the same compound?
The value was 0.69.

What about the “Expression of induced resistance gene, Hydroxyproline” value [6] of the same compound?
The value was 0.53.

What about the “Expression of induced resistance gene, PR_2 family” value [7] of the same compound?
The value was 0.47.

And the “Expression of induced resistance gene, Metallothionein” value [8]?
Its value is 0.21.

What about the “Expression of induced resistance gene, PR_1b family” value [9] of the same compound?
Its value is 0.5.

What about the “Expression of induced resistance gene, PR_4 family” value [10] of the same compound?
The value was 5.86.

What about the “Expression of induced resistance gene, Extensin” value [11] of the same compound?
The value was 0.93.

What about the “Occurrence rate of pine wilt disease: Number of pine trees showing wilt symptoms / Number of pine trees used for the test” value ([12]; 2 µg/mℓ) of the same compound?
Its value is 3/3.

What about the “Occurrence rate of pine wilt disease: Number of pine trees showing wilt symptoms / Number of pine trees used for the test” value ([12]; 20 µg/mℓ) of the same compound?
The value was 2/3.

What about the “Occurrence rate of pine wilt disease: Number of pine trees showing wilt symptoms / Number of pine trees used for the test” value ([12]; 200 µg/mℓ) of the same compound?
The value was 2/3.

And the “Number of pine trees showing wilt symptoms only at growing points of a stem” value (“Number … of a stem” below) ([12]; 2 µg/mℓ)?
The value was 1.

What about the “Number … of a stem” value ([12]; 20 µg/mℓ) of the same compound?
Its value is 1.

What about the “Number … of a stem” value ([12]; 200 µg/mℓ) of the same compound?
Its value is 2.
